Measured values: ChEMBL document CHEMBL5620382, “Fluoroindole chalcone analogues targeting the colchicine binding site of tubulin for colorectal oncotherapy” (Eur J Med Chem, 2023)
The source made the active and inactive calls. The rule behind the calls is not given here.

How the values were obtained:
[1] = test system: HCT-116; test: Induction of endoplasmic reticulum (ER) stress in human HCT-116 cells assessed as increase in ROS level at 5 nM measured after 24 hrs by fluorescent analysis (reference value: 12%); format: functional
[2] = test system: CT26; test: Antiproliferative activity against mouse CT26 cells assessed as dead cells at 2.5 to 40 nM measured after 24 hrs by Calcein-AM/PI staining based immunofluorescence analysis; format: functional, cell-based; conditions: dose 2.5-40 nM
[3] = test system: HCT-116; test: Anti-tumor activity against human HCT-116 cells xenografted in BALB/c mouse assessed as inhibition of cell proliferation in tumor section at 3 mg/kg, ip thrice a week for three weeks by Ki-67 staining based assay; format: functional, organism-based; conditions: time 3.0 weeks
[4] = test system: NCM460; test: Antiproliferative activity against human NCM460 cells assessed as inhibition of proliferation at 2.5 to 20 nM measured after 24 hrs by CCK-8 assay; format: toxicity, cell-based; conditions: ncm460, 24 h, 0.02 µM, dose 2.5-20 nM
[5] = test system: HCT-116; test: Induction of endoplasmic reticulum (ER) stress in human HCT-116 cells assessed as increase in ROS level at 1.25 nM measured after 24 hrs by fluorescent analysis (reference value: 12%); format: functional
[6] = test system: CT26; test: Induction of endoplasmic reticulum (ER) stress in mouse CT26 cells assessed as increase in ROS level at 10 to 40 nM measured after 24 hrs by DCFH-DA analysis; format: functional, cell-based; conditions: dose 10-40 nM
[7] = Toxicity in BALB/c mouse xenografted with human HCT116 cells assessed as side effects at 1.5 to 3 mg/kg, ip thrice a week for three weeks; format: organism-based, HCT-116; conditions: in vivo, 504 h, dose 1.5-3 mg/kg, time 3 weeks
[8] = test system: HCT-116; test: Induction of endoplasmic reticulum (ER) stress in human HCT-116 cells assessed as increase in ROS level at 20 nM measured after 24 hrs by fluorescent analysis (reference value: 12%); format: functional
[9] = test system: HCT-116; test: Anti-tumor activity against human HCT-116 cells xenografted in BALB/c mouse assessed as increase in necrotic area in tumor section at 3 mg/kg, ip thrice a week for three weeks by H and E staining based assay; format: functional, organism-based; conditions: time 3.0 weeks
[10] = test system: HCT-116; test: Induction of endoplasmic reticulum (ER) stress in human HCT-116 cells assessed as upregulation of cleaved-caspase 3 at 10 to 20 nM measured after 24 hrs by Western blot analysis; format: functional, cell-based; conditions: dose 10-20 nM
[11] = test system: CT26; test: Induction of endoplasmic reticulum (ER) stress in mouse CT26 cells assessed as increase in ROS level at 10 nM measured after 24 hrs by fluorescent analysis (reference value: 14%); format: functional
[12] = test system: CT26; test: Induction of endoplasmic reticulum (ER) stress in mouse CT26 cells assessed as rough long-linear and irregularly dilated with locally verified expansion at 10 to 20 nM measured after 24 hrs by transmission electron microscope (TEM) analysis; format: functional, cell-based; conditions: dose 10-20 nM
[13] = species: Homo sapiens; test: Binding affinity to tubulin mutant (unknown origin) by MST analysis
[14] = test system: HCT-116; test: Induction of endoplasmic reticulum (ER) stress in human HCT-116 cells assessed as increase in ROS level at 2.5 nM measured after 24 hrs by fluorescent analysis (reference value: 12%); format: functional
[15] = test system: HCT-116; test: Induction of apoptosis in human HCT116 cells assessed as dead cells at 2.5 to 20 nM measured after 24 hrs by PI/Annexin V-FITC staining based flow cytometry; format: functional, cell-based; conditions: dose 2.5-20 nM
[16] = Toxicity in BALB/c mouse xenografted with human HCT116 cells assessed as change in body weight at 1.5 to 3 mg/kg, ip thrice a week for three weeks; format: organism-based, HCT-116; conditions: in vivo, 504 h, dose 1.5-3 mg/kg, time 3 weeks
[17] = test system: HCT-116; test: Induction of endoplasmic reticulum (ER) stress in human HCT-116 cells assessed as increase in ROS level at 10 to 20 nM measured after 24 hrs by DCFH-DA analysis; format: functional, cell-based; conditions: dose 10-20 nM
[18] = test system: CT26; test: Disruption of microtubule assembly in mouse CT26 cells assessed as reduced/disorganized microtubule network measured after 24 hrs by high-resolution microscopy; format: functional, cell-based
[19] = test system: CT26; test: Induction of endoplasmic reticulum (ER) stress in mouse CT26 cells assessed as increase in ROS level at 20 nM measured after 24 hrs by fluorescent analysis (reference value: 14%); format: functional
[20] = test system: HCT-116; test: Induction of mitochondrial dysfunction in human HCT-116 cells assessed as change in mitochondrial membrane potential (MMP) by JC-1 fluorescence assay; format: functional, cell-based; conditions: dose 1.25-20 µM
[21] = test system: CT26; test: Induction of apoptosis in mouse CT26 cells assessed as dead cells at 2.5 to 40 nM measured after 24 hrs by PI/Annexin V-FITC staining based flow cytometry; format: functional, cell-based; conditions: dose 2.5-40 nM
[22] = test system: CT26; test: Induction of endoplasmic reticulum (ER) stress in mouse CT26 cells assessed as increase in ROS level at 40 nM measured after 24 hrs by fluorescent analysis (reference value: 14%); format: functional
[23] = test system: HCT-116; test: Induction of mitochondrial dysfunction in human HCT-116 cells assessed as reduction in oxygen consumption rate (OCR) incubated for 24 hrs; format: functional, cell-based; conditions: dose 1.25-20 µM
[24] = test system: HCT-116; test: Induction of endoplasmic reticulum (ER) stress in human HCT-116 cells assessed as increase p-IRE1alpha expression at 10 to 20 nM measured after 24 hrs by Western blot analysis; format: functional, cell-based; conditions: dose 10-20 nM
[25] = test system: Mus musculus; test: Antitumor activity against C57BL/6-APCmin/+ mouse model assessed as reduction in number of tumors in intestine at 3 mg/kg, ip treated for 45 days relative to control; format: functional, organism-based; conditions: time 45.0 day
[26] = test system: HCT-116; test: Induction of cell cycle arrest in human HCT-116 cells […] assessed as accumulation of cells at G2/M phase at 2.5 to 10 nM by flow cytometry analysis; format: functional, cell-based; conditions: dose 2.5-10 nM
[27] = test system: HCT-116; test: Induction of mitochondrial damage in human HCT-116 cells at 10 to 20 nM measured after 24 hrs by transmission electron microscope (TEM) analysis; format: functional, cell-based; conditions: dose 10-20 nM

In the case of `COc1cc(C(=O)/C(C)=C/c2c[nH]c3cc(F)ccc23)cc(OC)c1OC`, the Activity [1] is reported as 48.5%, the Activity [2] is reported as “Active” and the Activity [3] is reported as “Active”. The Activity [4] was “Non-Toxic”, the Activity [5] was 20.1% and the Activity [6] was “Active”. The Activity [7] was “Non-Toxic”, the Activity [8] was 74.4% and the Activity [9] was “Active”. For the same compound, the Activity [10] was “Active”, the Activity [11] was 24.4% and the Activity [12] was “Active”. For the same compound, the Activity [13] was “inactive”, the Activity [14] was 35.6% and the Activity [15] was “Active”. The Activity [16] was “Non-Toxic”, the Activity [17] was “Active” and the Activity [18] was “Active”. The Activity [19] was 60.1%, the Activity [20] was “Dose-Dependent Effect” and the Activity [21] was “Active”. The Activity [22] was 59.1%, the Activity [23] was “Dose-Dependent Effect” and the Activity [24] was “Active”. For the same compound, the Activity [25] was “Active”, the Activity [26] was “Active” and the Activity [27] was “Active”.
